Assay results taken from ChEMBL document CHEMBL1764984 (J Med Chem, 2011).
Converted amounts (≈) assume the structure as drawn. Blank lines part the entries; values can stand above or below the molecule they belong to.

Legend:
Blood = experiment: Inhibition of TNFalpha-induced IL1-beta production in human whole blood after 2 to 5 hrs by ELISA; assay type: functional, tissue-based
[1] = biological target: T1, Mitogen-activated protein kinase 14 (Homo sapiens, UniProt Q16539); experiment: Inhibition of human recombinant p38alpha assessed as incorporation of 33P from gamma-[33P]ATP into myelin basic protein after 30 mins by scintillation counting
[2] = biological target: T1, Mitogen-activated protein kinase 14; experiment: Inhibition of p38alpha
[3] = biological target: Tyrosine-protein kinase Lck (Homo sapiens, UniProt P06239); experiment: Inhibition of LCK
[4] = Permeability of the compound from apical to basolateral side of human Caco2 cells at 10 uM after 21 days; assay type: ADME, cell-based; conditions: Caco-2, read-out: permeability
Rattus norvegicus = experiment: Inhibition of LPS-induced TNFalpha production in rat serum at 3 mg/kg, po administered 30 mins before LPS challenge measured after […] by ELISA; assay type: functional
[5] = Permeability of the compound from basolateral to apical side of human Caco2 cells at 10 uM after 21 days; assay type: ADME, cell-based; conditions: Caco-2, read-out: permeability
[6] = Aqueous solubility of the compound in phosphate buffer at pH 6.5; assay type: physicochemical
[7] = Half life in Beagle dog at 10 mg/kg, po; assay type: ADME, organism-based, Canis lupus familiaris; design: dose 10 mg/kg, route oral; conditions: in vivo
[8] = AUC (infinity) in Hanover-Wistar rat at 10 mg/kg, po; assay type: ADME, organism-based; design: dose 10 mg/kg, route oral, time infinity; conditions: plasma
[9] = Oral bioavailability in Beagle dog at 10 mg/kg; assay type: ADME, organism-based, Canis lupus familiaris; conditions: in vivo
[10] = Plasma protein binding in Beagle dog by untrafiltration method; assay type: ADME, cell-free, Canis lupus familiaris; conditions: read-out: PPB (converted)
[11] = Clearance in Beagle dog at 10 mg/kg, iv; assay type: ADME, organism-based, Canis lupus familiaris; design: dose 10 mg/kg, route intravenous; conditions: in vivo
[12] = Volume of distribution at steady state in Beagle dog at 10 mg/kg, iv; assay type: ADME, organism-based, Canis lupus familiaris; design: dose 10 mg/kg, route intravenous; conditions: in vivo, read-out: Vdss
[13] = Cmax in Beagle dog at 10 mg/kg, po; assay type: ADME, organism-based, Canis lupus familiaris; design: dose 10 mg/kg, route oral; conditions: in vivo
[14] = AUC (infinity) in Beagle dog at 10 mg/kg, po; assay type: ADME, organism-based, Canis lupus familiaris; design: time infinity, dose 10 mg/kg, route oral; conditions: plasma
[15] = Plasma protein binding in Hanover-Wistar rat by untrafiltration method; assay type: ADME, cell-free; conditions: read-out: PPB (converted)
[16] = Tmax in Beagle dog at 10 mg/kg, po; assay type: ADME, organism-based, Canis lupus familiaris; design: dose 10 mg/kg, route oral; conditions: in vivo
[17] = biological target: Epithelial discoidin domain-containing receptor 1 (Homo sapiens, UniProt Q08345); experiment: Inhibition of DDR1 at 10 uM
[18] = biological target: Mitogen-activated protein kinase 10 (Homo sapiens, UniProt P53779); conditions: 10 uM
Description: Inhibition of JNK3 at 10 uM

[19] = biological target: Mitogen-activated protein kinase 11 (Homo sapiens, UniProt Q15759); experiment: Inhibition of P38beta at 10 uM
[20] = biological target: Ribosomal protein S6 kinase alpha-4 (Homo sapiens, UniProt O75676); experiment: Inhibition of RSK4 at 10 uM
[21] = biological target: Ribosomal protein S6 kinase alpha-3 (Homo sapiens, UniProt P51812); experiment: Inhibition of RSK2 at 10 uM
[22] = biological target: Mitogen-activated protein kinase 9 (Homo sapiens) (UniProt P45984); experiment: Inhibition of JNK2 at 10 uM
[23] = biological target: Serine/threonine-protein kinase 36 (Homo sapiens) (UniProt Q9NRP7); conditions: 10 uM
Description: Inhibition of STK36 at 10 uM

[24] = biological target: Casein kinase I isoform epsilon (Homo sapiens, UniProt P49674); conditions: 10 uM
Description: Inhibition of CSNK1epsilon at 10 uM

[25] = biological target: Mitogen-activated protein kinase 8 (Homo sapiens) (UniProt P45983); experiment: Inhibition of JNK1 at 10 uM
[26] = biological target: Atypical kinase COQ8A, mitochondrial (Homo sapiens, UniProt Q8NI60); conditions: 10 uM
Description: Inhibition of ADCK3 at 10 uM

[27] = biological target: Serine/threonine-protein kinase NLK (Homo sapiens) (UniProt Q9UBE8); experiment: Inhibition of NLK at 10 uM
[28] = biological target: Cyclin-G-associated kinase (Homo sapiens) (UniProt O14976); experiment: Inhibition of GAK at 10 uM

T1 sequence (Q16539 whole entry): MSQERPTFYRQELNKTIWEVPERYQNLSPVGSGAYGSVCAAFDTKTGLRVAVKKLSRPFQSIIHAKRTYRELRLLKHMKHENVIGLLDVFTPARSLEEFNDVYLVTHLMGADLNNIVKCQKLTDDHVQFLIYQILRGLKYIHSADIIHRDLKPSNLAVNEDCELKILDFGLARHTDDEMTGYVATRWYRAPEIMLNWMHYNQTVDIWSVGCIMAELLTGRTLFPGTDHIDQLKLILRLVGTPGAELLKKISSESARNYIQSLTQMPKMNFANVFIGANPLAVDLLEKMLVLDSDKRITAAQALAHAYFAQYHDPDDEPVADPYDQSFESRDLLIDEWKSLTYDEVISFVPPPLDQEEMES
Sequence of Tyrosine-protein kinase Lck (P06239 whole entry): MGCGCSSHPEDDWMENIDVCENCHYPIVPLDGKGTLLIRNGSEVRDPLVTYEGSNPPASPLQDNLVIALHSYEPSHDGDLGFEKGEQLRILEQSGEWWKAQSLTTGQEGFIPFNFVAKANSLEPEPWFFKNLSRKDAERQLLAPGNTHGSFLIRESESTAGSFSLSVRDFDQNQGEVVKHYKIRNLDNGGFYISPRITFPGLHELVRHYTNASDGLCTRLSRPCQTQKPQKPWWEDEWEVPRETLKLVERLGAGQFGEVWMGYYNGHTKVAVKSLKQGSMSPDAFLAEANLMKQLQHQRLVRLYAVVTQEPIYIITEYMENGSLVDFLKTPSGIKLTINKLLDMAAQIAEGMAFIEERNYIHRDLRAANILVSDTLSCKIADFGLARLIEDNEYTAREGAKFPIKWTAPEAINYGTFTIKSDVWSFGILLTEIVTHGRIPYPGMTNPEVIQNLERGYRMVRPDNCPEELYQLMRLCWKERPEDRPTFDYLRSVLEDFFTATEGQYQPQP
Sequence of Mitogen-activated protein kinase 8 (Homo sapiens) (P45983 whole entry): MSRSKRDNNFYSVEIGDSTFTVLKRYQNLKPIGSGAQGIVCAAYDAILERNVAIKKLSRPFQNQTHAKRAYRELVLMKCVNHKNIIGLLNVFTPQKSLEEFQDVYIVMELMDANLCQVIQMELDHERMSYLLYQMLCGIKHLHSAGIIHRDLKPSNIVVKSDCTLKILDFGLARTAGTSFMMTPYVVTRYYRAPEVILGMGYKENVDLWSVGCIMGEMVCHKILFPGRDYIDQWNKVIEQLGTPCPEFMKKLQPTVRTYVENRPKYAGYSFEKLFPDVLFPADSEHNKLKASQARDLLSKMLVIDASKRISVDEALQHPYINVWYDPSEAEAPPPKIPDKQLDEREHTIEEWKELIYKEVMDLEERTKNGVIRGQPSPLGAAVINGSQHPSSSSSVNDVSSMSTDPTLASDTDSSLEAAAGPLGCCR
Sequence of Serine/threonine-protein kinase NLK (Homo sapiens) (Q9UBE8 whole entry): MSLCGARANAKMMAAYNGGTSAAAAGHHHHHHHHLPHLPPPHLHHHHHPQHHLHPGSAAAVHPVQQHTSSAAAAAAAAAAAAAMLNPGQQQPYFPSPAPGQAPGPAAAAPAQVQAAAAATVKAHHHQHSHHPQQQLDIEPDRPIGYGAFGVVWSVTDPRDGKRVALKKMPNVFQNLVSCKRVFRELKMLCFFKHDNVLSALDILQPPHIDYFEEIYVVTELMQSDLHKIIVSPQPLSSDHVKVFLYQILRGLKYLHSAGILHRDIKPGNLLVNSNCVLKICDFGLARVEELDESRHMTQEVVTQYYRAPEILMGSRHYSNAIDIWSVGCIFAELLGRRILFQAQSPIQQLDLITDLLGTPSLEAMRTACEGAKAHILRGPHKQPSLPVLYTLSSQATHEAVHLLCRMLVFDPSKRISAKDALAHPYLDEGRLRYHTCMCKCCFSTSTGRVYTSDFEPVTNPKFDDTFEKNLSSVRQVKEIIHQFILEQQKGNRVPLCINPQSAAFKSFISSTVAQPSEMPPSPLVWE
Sequence of Casein kinase I isoform epsilon (P49674 whole entry, looked up, canonical isoform): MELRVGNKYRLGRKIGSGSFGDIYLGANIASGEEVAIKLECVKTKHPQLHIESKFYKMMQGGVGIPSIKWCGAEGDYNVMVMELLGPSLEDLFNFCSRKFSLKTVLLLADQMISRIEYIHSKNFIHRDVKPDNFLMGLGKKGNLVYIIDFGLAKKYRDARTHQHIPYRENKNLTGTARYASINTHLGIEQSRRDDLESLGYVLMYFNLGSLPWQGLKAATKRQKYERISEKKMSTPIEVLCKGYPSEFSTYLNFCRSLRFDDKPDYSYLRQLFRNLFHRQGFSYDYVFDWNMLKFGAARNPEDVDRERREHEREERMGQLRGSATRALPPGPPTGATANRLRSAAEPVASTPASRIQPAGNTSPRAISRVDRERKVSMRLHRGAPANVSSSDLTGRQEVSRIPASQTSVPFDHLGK
Sequence of Mitogen-activated protein kinase 10 (P53779 whole entry): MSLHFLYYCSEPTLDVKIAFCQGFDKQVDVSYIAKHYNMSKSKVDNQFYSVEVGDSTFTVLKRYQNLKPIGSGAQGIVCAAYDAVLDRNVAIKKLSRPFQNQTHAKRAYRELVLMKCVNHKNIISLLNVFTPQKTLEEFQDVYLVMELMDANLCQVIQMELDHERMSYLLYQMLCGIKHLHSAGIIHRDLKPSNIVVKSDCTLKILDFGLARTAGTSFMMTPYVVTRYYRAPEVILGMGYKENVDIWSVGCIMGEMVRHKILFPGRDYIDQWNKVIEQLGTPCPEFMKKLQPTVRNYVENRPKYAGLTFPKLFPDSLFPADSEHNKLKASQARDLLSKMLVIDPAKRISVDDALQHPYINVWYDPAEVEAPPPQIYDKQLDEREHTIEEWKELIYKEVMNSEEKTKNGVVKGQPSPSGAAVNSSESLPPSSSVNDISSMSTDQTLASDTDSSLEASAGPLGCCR
Sequence of Atypical kinase COQ8A, mitochondrial (Q8NI60 163-647 limits assumed): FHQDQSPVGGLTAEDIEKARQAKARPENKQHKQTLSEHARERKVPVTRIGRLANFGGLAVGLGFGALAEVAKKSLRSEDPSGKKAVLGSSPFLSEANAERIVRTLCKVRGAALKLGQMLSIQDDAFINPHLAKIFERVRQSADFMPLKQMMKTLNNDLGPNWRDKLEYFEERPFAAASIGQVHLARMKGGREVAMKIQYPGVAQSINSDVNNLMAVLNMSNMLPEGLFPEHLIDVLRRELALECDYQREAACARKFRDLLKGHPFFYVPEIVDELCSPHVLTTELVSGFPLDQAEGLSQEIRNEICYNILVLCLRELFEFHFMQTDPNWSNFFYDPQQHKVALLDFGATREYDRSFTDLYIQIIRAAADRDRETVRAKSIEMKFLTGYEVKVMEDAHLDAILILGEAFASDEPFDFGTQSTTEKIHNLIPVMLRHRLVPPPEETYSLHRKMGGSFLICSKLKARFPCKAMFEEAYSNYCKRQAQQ
Sequence of Ribosomal protein S6 kinase alpha-3 (P51812 whole entry): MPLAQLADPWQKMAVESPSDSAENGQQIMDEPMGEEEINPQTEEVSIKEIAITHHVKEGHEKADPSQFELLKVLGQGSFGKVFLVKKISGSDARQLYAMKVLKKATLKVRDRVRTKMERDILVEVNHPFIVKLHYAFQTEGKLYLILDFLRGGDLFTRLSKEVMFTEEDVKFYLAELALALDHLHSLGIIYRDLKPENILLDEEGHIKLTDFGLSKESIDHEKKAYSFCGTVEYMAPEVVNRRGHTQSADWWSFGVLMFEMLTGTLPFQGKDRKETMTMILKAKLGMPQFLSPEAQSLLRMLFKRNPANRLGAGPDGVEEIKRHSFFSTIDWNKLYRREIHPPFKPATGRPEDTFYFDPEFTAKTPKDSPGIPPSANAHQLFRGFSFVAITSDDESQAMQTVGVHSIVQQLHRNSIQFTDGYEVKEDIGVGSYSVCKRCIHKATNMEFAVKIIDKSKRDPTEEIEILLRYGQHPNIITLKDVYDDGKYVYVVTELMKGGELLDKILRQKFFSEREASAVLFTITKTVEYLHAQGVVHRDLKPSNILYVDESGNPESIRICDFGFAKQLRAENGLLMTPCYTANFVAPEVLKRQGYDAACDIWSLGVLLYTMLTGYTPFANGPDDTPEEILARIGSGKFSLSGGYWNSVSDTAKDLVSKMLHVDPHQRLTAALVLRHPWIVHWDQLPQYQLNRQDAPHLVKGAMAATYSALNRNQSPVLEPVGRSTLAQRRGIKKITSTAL
Sequence of Mitogen-activated protein kinase 9 (Homo sapiens) (P45984 whole entry, looked up): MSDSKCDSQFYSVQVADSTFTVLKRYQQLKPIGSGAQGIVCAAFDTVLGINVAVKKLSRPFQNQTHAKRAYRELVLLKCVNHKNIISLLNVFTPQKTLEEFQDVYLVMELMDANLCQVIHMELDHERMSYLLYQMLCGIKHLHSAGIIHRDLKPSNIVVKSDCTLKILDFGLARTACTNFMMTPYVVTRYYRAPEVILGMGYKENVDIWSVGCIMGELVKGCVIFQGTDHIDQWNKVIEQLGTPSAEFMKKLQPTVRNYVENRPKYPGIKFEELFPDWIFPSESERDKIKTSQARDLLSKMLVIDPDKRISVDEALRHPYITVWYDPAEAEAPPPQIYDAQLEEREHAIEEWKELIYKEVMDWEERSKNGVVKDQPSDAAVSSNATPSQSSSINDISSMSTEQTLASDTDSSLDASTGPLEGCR
Sequence of Mitogen-activated protein kinase 11 (Q15759 whole entry): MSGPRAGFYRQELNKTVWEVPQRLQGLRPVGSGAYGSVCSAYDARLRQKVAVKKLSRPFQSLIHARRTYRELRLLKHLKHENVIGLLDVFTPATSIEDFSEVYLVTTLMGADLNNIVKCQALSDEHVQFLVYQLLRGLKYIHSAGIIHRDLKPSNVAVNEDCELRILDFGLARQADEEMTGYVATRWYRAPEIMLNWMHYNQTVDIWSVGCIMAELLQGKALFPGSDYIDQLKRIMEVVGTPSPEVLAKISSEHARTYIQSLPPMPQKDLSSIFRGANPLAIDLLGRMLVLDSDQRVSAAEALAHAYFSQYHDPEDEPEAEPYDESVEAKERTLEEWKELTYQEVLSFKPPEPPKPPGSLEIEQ

SMILES: Cn1c(=O)c(Oc2cccc(F)c2)cc2cnc(NC3CCOCC3)nc21
IC50 (Blood): 1220 nM | IC50 [1]: 594 nM

SMILES: Cn1c(=O)c(Oc2ccccc2)cc2cnc(NC3CCOCC3)nc21
IC50 (Blood): 451 nM

SMILES: O=C1Nc2nc(N[C@H]3CC[C@H](O)CC3)ncc2CN1c1ccccc1Cl
Kd [2]: 32 nM | Kd [3]: > 20000 nM

SMILES: N#CCn1c(=O)c(Oc2ccc(F)cc2F)cc2cnc(NC3CCOCC3)nc21
IC50 (Blood): 28 nM | IC50 [1]: 2 nM

SMILES: Cn1c(=O)c(Oc2ccc(F)cc2F)cc2cnc(NC(C)(C)CO)nc21
IC50 [1]: 25 nM

SMILES: CC(C)Nc1ncc2cc(Oc3ccc(F)cc3F)c(=O)n(C)c2n1
IC50 (Blood): 45 nM | IC50 [1]: 4 nM

SMILES: Cl.Cn1c(=O)c(Oc2ccc(F)cc2F)cc2cnc(NC3CCOCC3)nc21 [R-1487 HYDROCHLORIDE]
half-life [7]: 2.23 h | AUC(0-inf) [8]: 2350 ng·h/mL | bioavailability [9]: 10.3% | fraction unbound [10]: 0.096 | clearance [11]: 54.2 mL/min/kg | Vd [12]: 4.65 L/kg | Cmax [13]: 110 ng/mL | AUC(0-inf) [14]: 310 ng·h/mL | fraction unbound [15]: 0.044 | Tmax [16]: 0.5 h

SMILES: O=c1c(Oc2ccc(F)cc2F)cc2cnc(NC3CCOCC3)nc2n1C1CCS(=O)(=O)CC1
IC50 (Blood): 11 nM | IC50 [1]: 1 nM

SMILES: Cn1c(=O)c(Oc2ccc(F)cc2F)cc2cnc(NC3CCOCC3)nc21
inhibition [17]: > 85% | inhibition [18]: > 85% | inhibition [19]: > 85% | inhibition [20]: > 85% | inhibition [21]: > 85% | inhibition [22]: > 85% | inhibition [23]: > 85% | inhibition [24]: > 85% | inhibition [25]: > 85% | inhibition [26]: > 85% | inhibition [27]: > 85% | inhibition [28]: > 85%

SMILES: CC(=O)N1CCC(Nc2ncc3cc(Oc4ccc(F)cc4F)c(=O)n(C)c3n2)CC1
Papp A→B at 10 µM [4]: 17.9 ×10⁻⁶ cm/s | IC50 (Blood): 30 nM | IC50 [1]: 1 nM | inhibition in vivo at 3 mg/kg (Rattus norvegicus): 76% | Papp B→A at 10 µM [5]: 19.8 ×10⁻⁶ cm/s | solubility [6]: 14 µg/mL (≈ 32.6 µM)

SMILES: C[C@@H](CS(C)(=O)=O)Nc1ncc2cc(Oc3ccc(F)cc3F)c(=O)n(C)c2n1
IC50 (Blood): > 3000 nM

The next lines start with results.

IC50 (Blood): 13 nM | IC50 [1]: 9 nM
SMILES: O=c1c(Oc2ccc(F)cc2F)cc2cnc(NC3CCOCC3)nc2n1C1CC1

IC50 [1]: 260 nM
SMILES: CNc1ncc2cc(Oc3ccc(F)cc3F)c(=O)n(C)c2n1

IC50 (Blood): 64.8 nM | IC50 [1]: 15 nM
SMILES: Cn1c(=O)c(Oc2ccccc2F)cc2cnc(NC3CCOCC3)nc21

Papp A→B at 10 µM [4]: 13.5 ×10⁻⁶ cm/s | IC50 (Blood): 50 nM | Papp B→A at 10 µM [5]: 22.4 ×10⁻⁶ cm/s | solubility [6]: 18 µg/mL (≈ 42.4 µM)
SMILES: C[C@H](CS(C)(=O)=O)Nc1ncc2cc(Oc3ccc(F)cc3F)c(=O)n(C)c2n1
inhibition in vivo at 3 mg/kg (Rattus norvegicus): 88%

IC50 (Blood): 15 nM | IC50 [1]: 7 nM
SMILES: O=c1c(Oc2ccc(F)cc2F)cc2cnc(NC3CCOCC3)nc2n1C[C@H](O)CO

IC50 (Blood): 769 nM | IC50 [1]: 15 nM
SMILES: Cn1c(=O)c(Oc2ccc(F)cc2F)cc2cnc(NC3CCS(=O)(=O)CC3)nc21

IC50 (Blood): 318 nM
SMILES: C[C@H](Cn1ncnn1)Nc1ncc2cc(Oc3ccc(F)cc3F)c(=O)n(C)c2n1

Kd [2]: 10 nM | Kd [3]: 0.2 nM
SMILES: CCN(CC)CCOc1ccc(Nc2ncc3c(n2)N(C)C(=O)N(c2c(Cl)cccc2Cl)C3)cc1
